Measured values as given in patent publication US20070078085A1, “Methods and compositions for the utilization and targeting of osteomimicry” (priority 2004, published 2007).

Key:
Format in all cases: cell-based, human
hBSP promoter = assay: hBSP promoter-luciferase reporter activity in transfected cells; conditions: C4-2B cells; H-89 10^−8 to 10^−6 M for 2 h, then FSK 10^−6 M 16 h; concentration-dependent
Excerpt: Plasmid Construction. Genomic DNA was used in the PCR of the 0.8-kb hOC promoter inserting KpnI and XhoI sites, subsequently cloned into pGL3-Basic-luciferase reporter vector (Promega, Madison, Wis.) as described before (9). The deletion constructs, ΔA [374 bp upstream of AP1/VDRE (AV) element], ΔTst-1 (POU-factor Tst-1/Oct-6 binding site), ΔCRE (cAMP-responsive element) and ΔIRF-1 (interferon regulatory factor-i binding site) in hOC promoter/pGL3 were generated by recombinant PCR technique. The point mutation plasmids in CRE (from -643 to -636 in hOC promoter, 5′-[…]-3′) were constructed with a QuikChange Site-Directed Mutagenesis Kit (Stratagene). […]
Transfection and Luciferase Activity Assay. […] For luciferase activity assay, 20 μl of the lysate supernatant was mixed with 100 μl of the luciferase substrate (Promega) and detected by a luminometer (Monolight 3010, luminometer PharMingen, San Diego, Calif.). For β-galactosidase activity assay, 100 μl of the supernatant was mixed with 100 μl of 2×β-galactosidase substrate [200 mM sodium phosphate buffer, pH 7.3, 2 mM MgCl2, 100 mM β-mercaptoethanol and 1.33 mg/ml o-nitrophenyl-β-D-galactopyranoside (ONPG)], and incubated at 37° C. for 30 min. β-galactosidase activity was detected by Microplate spectrophotometer (Molecular Devices Corp., Sunnyvale, Calif.) at 405 nm wavelength. […]

OC mRNA = assay: Semi-quantitative RT-PCR of endogenous OC mRNA; conditions: LNCaP and C4-2B cells (data not shown)
Method: (§1) Reverse Transcription-Polymerase Chain Reaction (RT-PCR) Analysis. Total RNA was isolated from confluent monolayers of cells using RNAZol B (Teltest Inc., Friendswood, Tex.). Five μg of total RNA was used as template and 0.15 μg of random hexanucleotide primers were added for reverse transcription and amplification in a reaction volume of 20 μl, according to the manufacturer's instruction (Invitrogen, Carlsbad, Calif.). After RT reaction, 3-5 μl of the 1st-strand cDNA was used for PCR with a PTC-100 programmable Thermal Controller (MJ Research Inc.). The oligonucleotide primer sets used for PCR analysis of cDNA are: hOC, 5′-[…]-3′ (forward) and 5′-[…]-3′ (reverse); hBSP, 5′-[…]-3′ (forward) and 5′-[…]-3′ (reverse); and glyceraldehyde phosphate dehydrogenase (GAPDH), 5′-[…]-3′ (forward) and 5′-[…]-3′ (reverse), respectively. The thermal profile for hOC amplification is 30 cycles starting with denaturation 1 min at 94° C., followed by 1 min of annealing at 55° C. and 1 min of extension at 72° C. For hBSP amplification the thermal profile is 35 cycles starting with denaturation 1 min at 94° C., followed by 30 s of annealing at 48° C. and 40 s of extension at 72° C. The program for GAPDH amplification is 25 cycles starting with denaturation 30 s at 94° C., followed by 30 s of annealing at 60° C. and 1 min of extension at 72° C. The RT-PCR products were analyzed by 1.2% agarose gel electrophoresis. Quantity one-4.1.1 Gel Doc gel documentation software (Bio-Rad) or NIH image were used for quantification of hOC and hBSP mRNA expression normalized by GAPDH mRNA expression.

BSP mRNA = assay: Semi-quantitative RT-PCR of endogenous BSP mRNA; conditions: LNCaP and C4-2B cells (data not shown)
Method: as §1

O=S(=O)(NCCNCC=Cc1ccc(Br)cc1)c1cccc2cnccc12 [H-89, N-[2-(p-bromocinnamylamino)ethyl]-5-isoquinolinesulfonamide]
inhibited: FSK-stimulated hBSP promoter activity (hBSP promoter) | induction of endogenous OC mRNA expression by ARCaP CM or FSK (OC mRNA) | induction of endogenous BSP mRNA expression by ARCaP CM or FSK (BSP mRNA)
